Measured values reported in patent US12171233B1, “Ethyl {[N′-(3-chlorophenyl)-N-(2,4-dichlorobenzoyl) carbamimidoyl]sulfanyl}acetate as an eco-friendly insecticidal agent against Spodoptera littoralis (Boisd.)” (priority 2023, dated 2024).
≈ marks a conversion by molar mass, not a printed value. Read-outs that look alike come from different tables or passages of the source.

Test system: Spodoptera littoralis larvae (2nd and 4th instar)
Test: Insecticidal bioassay screening (castor leaf dip)
Format: in vivo
Conditions: for LC50 (ppm) at 95% / LC90 (ppm) at 95%: after 72 h of treatment; for Toxicity index %: Diflubenzuron LC50 / compound LC50 x 100; for LC50: foliar
Method: In this experiment, castor leaves are immersed in each of the previously prepared concentrations of the components for 10 seconds and then left to dry for 60 minutes. Larvae of the second and fourth instars of each checked strain are prepared with treated leaves in gauze-covered glass containers for 72 hrs. An untreated control is made in which leaves are dipped in triton x-100 and distilled water only. Then the preserved leaves were removed & fresh, untreated leaves were provided for 72 hours. Three replicates (10 larvae each) were checked for each concentration. Daily inspection was carried out for all treatments and mortality percentages were recorded 3 days (72 hours) after treatment. The average mortality percentage was corrected employing Abbott's formula. The corrected mortality rate for each of the previously synthesized compounds is statistically calculated according to Finney (1970). Through this rate, the corresponding concentration test lines (LDP lines) are assessed. Fifty and ninety percent mortality are determined, and the regression values for the checked products were previously evaluated.

[1] = 2nd instar larvae of S. littoralis
[2] = 4th instar larvae of S. littoralis

| SMILES | LC50 (ppm) at 95% [1] | LC90 (ppm) at 95% [1] [ppm] | Toxicity index % (2nd instar larvae) [%] | LC50 (ppm) at 95% [2] | LC90 (ppm) at 95% [2] [ppm] | Toxicity index % (4th instar larvae) [%] | LC50 (Spodoptera littoralis) [µg/mL] | effect on larval morphology (FIGS. 1A-1B) (S. littoralis larvae versus normal larvae (control)) | activity against Spodoptera littoralis (in words) (compared with reference insecticide Diflubenzuron) | LC50 (against Spodoptera littoralis under laboratory conditions (instar not given), read-out: LC50) [µg/mL] |
| --- | --- | --- | --- | --- | --- | --- | --- | --- | --- | --- |
| O=C(NC(=S)Nc1cccc(Cl)c1)c1ccc(Cl)cc1Cl [Compound 1, 2,4-dichloro-N-[(3-chlorophenyl)carbamothioyl]benzamide] | 211.4 ppm | 1913.2 | 21.1 | 472.3 ppm | 4322.7 | 30.5 | – | – | – | – |
| O=C(NC(=O)c1c(F)cccc1F)Nc1ccc(Cl)cc1 [Diflubenzuron, reference compound] | 45.20 ppm | 520.0 | 100 | 144.05 ppm | 1540.5 | 100 | 45.2 (≈ 145 µM) | – | – | – |
| CCOC(=O)CS/C(=N\c1cccc(Cl)c1)NC(=O)c1ccc(Cl)cc1Cl [Compound 2, Ethyl {[N′-(3-chlorophenyl)-N-(2,4-dichlorobenzoyl)carbamimidoyl]sulfanyl}acetate] | about 211.4 ppm | – | – | about 472.3 ppm | – | – | – | Morphological malformations | active against Spodoptera littoralis | 211 |
